According to patent US7427599B2, “Biologically active peptide comprising Tyrosyl-seryl-valine(YSV)” (CMS Peptides Patent Holding Company Limited, priority 2003, dated 2008):
Marks after values point to notes of the source that are not given here.

Experiments:
[1] = tested on: melanoma B16; assay: Growth of C57BL/6 mice-transplanted melanoma B16; format: in vivo; settings: 20 mg/kg/day intraperitoneal, 20 consecutive days
Method: B16 cells were maintained in RPMI-1640 medium with 10% FBS at 37° C., 5% CO2. Mouse B16 melanoma culture at log phase was adjusted to 2.5×10^6/ml with Hank's solution. 0.2 ml of this was subcutaneously injected to the right axilla of healthy C57 BL/6 mice to form the melanoma mice model. […] From the next day after the tumor implantation, the general conditions of the mice and the growth of the tumor were observed daily. On the next day after the last test substance administration, the tumors were extirpated and the weights of tumor were measured. […] The results were presented as arithmetic mean ±SD. Statistical analysis was performed using the ANOVA test of the SPSS software.

[2] = tested on: A549 human pulmonary carcinoma; assay: A549 human pulmonary carcinoma xenograft in nude mice; format: in vivo, BALB/c (nu/nu) athymic nude mice; settings: 20 mg/kg/day i.p., 40 days
Method: Healthy BALB/c (nu/nu) athymic nude mice (SPF, 4-5 weeks old, weighting 18-22 g) were purchased from Shanghai Tumor Academe of China Medical Academy of Science. In the first experiment, female was used. In the second experiment, male was used.
Select A549 human pulmonary carcinoma xenografts of diameter longer than 1 cm with good growth on nude mice. Aseptically excise the tumor mass, cut into pieces of 2-4 mm^3 and submerged in RPMI1640. Pulmonary carcinoma nude mice model was prepared by transplanting the tumor mass hypodermally to the back of healthy nude mice near to the neck via an incision at the ventral thorax.
The nude mice bearing A549 xenografts were randomly divided into groups of: saline control (0.2 ml/day), YSV groups of different dosages, and Cy control (0.2 mg/kg/day). The test substances were dissolved in 0.2 ml saline and administered intraperitoneally to the mice starting from the day after the transplantation, once per day for 40 consecutive days.
The general condition of the mice was observed daily. The mice were weighed every 3-4 days and the volume of the tumor was measured:
V=(⅙)πXYZ, where X, Y, and Z were the diameters of the tumor on the 3 planes.
The day after the last injection, the tumors were excised, weighted, and the volume measured. The tumors were examined for signs of necrosis. Tumor inhibition index=(average tumor weight of saline group−average tumor weight of test group)/average tumor weight of saline group×100%)
Statistical analysis was performed with SPSS software using one-way ANOVA analysis.

## O=P1(N(CCCl)CCCl)NCCCO1 (centres unmarked) [Cyclophosphamide, reference compound]
[1]
  The Inhibition rate (%): 81.5%
[1]; saline 2.64 ± 0.68
  Tumor weight: 0.49 ± 0.68 g
[2]; experiment 1, female nude mice
  Tumor inhibition index (%): 39.8%
[2]; experiment 1, female nude mice, saline 1.87 ± 1.10
  Tumor volume (cm^3): 1.02 ± 0.47* cm^3
[2]; experiment 1, female nude mice, saline 2.49 ± 1.02
  Tumor weight: 1.50 ± 0.75 g
[2]; experiment 2, male nude mice
  Tumor inhibition index (%): 51.9%
[2]; experiment 2, male nude mice, saline 1.34 ± 0.69
  Tumor volume (cm^3): 0.49 ± 0.34* cm^3
[2]; experiment 2, male nude mice, saline 1.51 ± 0.79
  Tumor weight: 0.73 ± 0.42 g
